The record followed here is patent US10072304B2, “Nuclear localization of Src-family tyrosine kinases is required for growth factor-induced euchromatinization” (National University Corporation Chiba University, priority 2009, dated 2018).

The test relates to nuclear SFKs. Put plainly: In vitro tyrosine phosphorylation of purified nuclei (kinase activity of nuclear SFKs). Format: biochemical, monkey. Particulars: purified COS-1 nuclei, 10 μM PP2, FIGS. 30 and 31. On the procedure:
Nuclei were prepared as described previously. In brief, COS-1 and HeLa cells were swollen in hypotonic buffer (10 mM HEPES-KOH, pH 7.9, 1.5 mM MgCl2, 10 mM KCl, 0.5 mM DTT, and 1 mM Na3VO4) containing protease inhibitors (2 mM phenylmethylsulfonyl fluoride, 50 μg/mL aprotinin, 100 μM leupeptin, and 25 μM pepstatin A) at 4° C. for 20 min, followed by homogenization with 20 strokes in a tight-fitting 1-ml Dounce homogenizer. After cell suspension was centrifuged at 200×g for 5 min, cell pellets were resuspended in 0.25 M sucrose containing protease inhibitors, 10 mM MgCl2, and 1 mM Na3VO4. […]
Confocal and Nomarski differential-interference-contrast images were obtained using a Fluoview FV500 confocal laser scanning microscope with a 40×1.00 NA oil and a 100×1.35 NA oil immersion objective (Olympus, Tokyo) and an LSM 510 confocal laser scanning microscope with a 63×1.40 NA oil immersion objective (Zeiss), as described. […] Emission signals were detected between 505 and 525 nm for fluorescein, at more than 560 nm for rhodamine and more than 610 nm for PI [44]. […] Fluorescence intensity plots of anti-histone H3K4me3, anti-ATF-2 pT69/71 and anti-HP1α antibody and PI staining (see FIGS. 18B, 19B, and 20B, respectively) were generated using Fluoview version 4.3 software (Olympus, Tokyo). […]

As to `CC(C)(C)n1nc(-c2ccc(Cl)cc2)c2c(N)ncnc21` [PP2], the “ATP-induced increase in nuclear tyrosine phosphorylation in purified nuclei” value was “significantly inhibited”.
